# Laboratory results taken from article PMC12628701, “Paroxysmal Nocturnal Hemoglobinuria in Pregnancy Treated With Pegcetacoplan: Case Report and Pharmacokinetic Analysis” (EJHaem, 2025).
# Key:
# [1] = system: patient with hemolytic PNH and infant; assay: Clinical tolerability and neonatal outcomes; type: in vivo, human
# Experimental: (§1) Maternal and fetal outcomes were assessed throughout the third trimester and postpartum. Hematological response was evaluated using serial measurements of hemoglobin, hemolytic markers, and transfusion requirements. Complement levels/activity were measured using immunoturbidimetric assays for C3/C4 (Roche Diagnostics, Germany), and 50% hemolytic complement (CH50) by turbidimetric assay (Optilite, Binding Site, UK). Maternal clinical monitoring included evaluation for breakthrough hemolysis, thrombotic events, and other adverse events. Neonatal outcomes included gestational age at delivery, mode of delivery, birth weight, Apgar scores, and any complications identified during birth, hospitalization, or early follow‐up.
# [2] = system: patient with hemolytic PNH; assay: Hematological response (hemoglobin, hemolytic markers, transfusion requirements) in pregnant patient with PNH; type: in vivo, human; conditions: for Hapto: normal 0.3–2.0; for ARC: normal 10–100; for Hb: normal 115–160; for Bili: normal ≤ 21; for LDH: normal ≤ 214
# Experimental: Prophylactic‐dose dalteparin was prescribed. […] Informed consent was obtained for off‐label use in pregnancy, pharmacokinetic sampling, and case reporting. Institutional ethics board review exemption was granted for this single‐patient case report.
# as §1
# cynomolgus monkeys = conditions: cynomolgus monkey, in vivo; cited from earlier work
# Text: In our case, pegcetacoplan was undetectable in all cord blood and breast milk samples, ...
# complement C3, C4, CH50 = assay: Complement levels/activity (C3/C4 immunoturbidimetric, CH50 turbidimetric) in patient; type: in vivo, human; conditions: for CH50: normal 42–95; for C4: normal 0.1–0.4; for C3: normal 0.9–1.8
# Experimental: as §1
# [3] = Pegcetacoplan concentration in breast milk (lactational transfer, LC-MS/MS); type: in vivo, human
# Experimental: (§2) Maternal blood samples were obtained during routine collections pre‐ and postpartum. Cord blood samples were obtained from the umbilical vein at the time of delivery. Breast milk samples were collected on postpartum Days 1 and 2. Quantitative analysis of pegcetacoplan concentrations in maternal plasma, umbilical cord blood plasma, and breast milk was performed by an independent, accredited laboratory (Q^2 Solutions BioSciences, USA) using a validated liquid chromatography‐tandem mass spectrometry method incorporating pegcetacoplan‐d22 as internal standard, with lower limits of quantification of 10 and 20 µg/mL for plasma and breast milk, respectively.
# hemoglobin response = conditions: plasma concentration; no reference given; cited from earlier work
# Experimental: Pegcetacoplan was undetectable in all three cord blood samples (< 10 µg/mL), with no identifiable mass spectrometry peaks, indicating no measurable transplacental drug transfer. Pegcetacoplan was likewise not detected in breast milk, with concentrations below the lower limit of quantification (< 20 µg/mL, Table 2).
# [4] = Pegcetacoplan concentration in umbilical cord blood plasma (placental transfer, LC-MS/MS); type: in vivo, human; conditions: umbilical vein at delivery, LLOQ 10 µg/mL
# Experimental: as §2
# [5] = Pegcetacoplan concentration in maternal plasma (LC-MS/MS); type: in vivo, human; conditions: LLOQ 10 µg/mL
# Experimental: as §2
# [6] = 3 + 5 w gestation, on pegcetacoplan before switch to eculizumab
# [7] = 28 + 1 w, date of pegcetacoplan reinitiation
# [8] = 30 + 3 w, pegcetacoplan overlapping with eculizumab
# [9] = 33 w, pegcetacoplan, dose escalation
# [10] = 35 + 6 w, pegcetacoplan 1080 mg three times weekly
# [11] = 37 + 2 w, date of delivery, pegcetacoplan
# [12] = 37 w, pegcetacoplan 1080 mg three times weekly
# [13] = after reinitiation of pegcetacoplan at 28 weeks' gestation
# [14] = before pregnancy, pegcetacoplan 1080 mg subcutaneous twice-weekly
# [15] = later the same day following delivery
compound,measurement,setting,value
CCO[C@H]1CCN(Cc2c(OC)cc(C)c3[nH]ccc23)[C@H](c2ccc(C(=O)O)cc2)C1 [iptacopan],Tolerability,"[1]; before pregnancy, nausea unresponsive to antiemetics",discontinued due to persistent nausea
pegcetacoplan,Hapto,[2]; [6],1.85 g/L
same,ARC,[2]; [6],8e+10 L⁻¹
same,Hb,[2]; [6],109 g/L
same,Bili,[2]; [6],7 µmol/L
same,LDH,[2]; [6],153 U/L
same,ARC,[2]; [7],1.73e+11 L⁻¹
same,Hb,[2]; [7],87 g/L
same,Bili,[2]; [7],12 µmol/L
same,LDH,[2]; [7],208 U/L
same,ARC,[2]; [8],1.72e+11 L⁻¹
same,Hb,[2]; [8],93 g/L
same,Bili,[2]; [8],9 µmol/L
same,LDH,[2]; [8],205 U/L
same,Hapto,[2]; [9],0.89 g/L
same,ARC,[2]; [9],1.74e+11 L⁻¹
same,Hb,[2]; [9],96 g/L
same,Bili,[2]; [9],7 µmol/L
same,LDH,[2]; [9],215 U/L
same,Hapto,[2]; [10],0.84 g/L
same,ARC,[2]; [10],1.78e+11 L⁻¹
same,Hb,[2]; [10],103 g/L
same,Bili,[2]; [10],4 µmol/L
same,LDH,[2]; [10],208 U/L
same,ARC,[2]; [11],1.2e+11 L⁻¹
same,Hb,[2]; [11],102 g/L
same,Bili,[2]; [11],3 µmol/L
same,LDH,[2]; [11],210 U/L
same,Hapto,[2]; [12],0.1 g/L
same,ARC,[2]; [12],1.29e+11 L⁻¹
same,Hb,[2]; [12],103 g/L
same,Bili,[2]; [12],3 µmol/L
same,LDH,[2]; [12],231 U/L
same,ARC,"[2]; PP 6 w, pegcetacoplan",1.46e+11 L⁻¹
same,Hb,"[2]; PP 6 w, pegcetacoplan",107 g/L
same,Bili,"[2]; PP 6 w, pegcetacoplan",4 µmol/L
same,LDH,"[2]; PP 6 w, pegcetacoplan",203 U/L
same,ARC,"[2]; PP 1 d, pegcetacoplan",1.03e+11 L⁻¹
same,Hb,"[2]; PP 1 d, pegcetacoplan",88 g/L
same,Bili,"[2]; PP 1 d, pegcetacoplan",3 µmol/L
same,LDH,"[2]; PP 1 d, pegcetacoplan",378 U/L
same,ARC,"[2]; PP 2 d, pegcetacoplan",1.07e+11 L⁻¹
same,Hb,"[2]; PP 2 d, pegcetacoplan",86 g/L
same,Bili,"[2]; PP 2 d, pegcetacoplan",3 µmol/L
same,LDH,"[2]; PP 2 d, pegcetacoplan",351 U/L
same,ARC,"[2]; PP 3 d, pegcetacoplan",1.06e+11 L⁻¹
same,Hb,"[2]; PP 3 d, pegcetacoplan",86 g/L
same,Bili,"[2]; PP 3 d, pegcetacoplan",3 µmol/L
same,LDH,"[2]; PP 3 d, pegcetacoplan",327 U/L
same,Hapto,"[2]; PP 10 d, pegcetacoplan",1.34 g/L
same,ARC,"[2]; PP 10 d, pegcetacoplan",9.7e+10 L⁻¹
same,Hb,"[2]; PP 10 d, pegcetacoplan",89 g/L
same,Bili,"[2]; PP 10 d, pegcetacoplan",4 µmol/L
same,LDH,"[2]; PP 10 d, pegcetacoplan",280 U/L
same,Hemoglobin (range) during the third trimester,[2]; [13],92 to 103 g/L
same,Transfusions after resumption,[2]; [13],no transfusions required
same,Hemoglobin stabilization,[2]; [14],approximately 110 g/L
same,Transfusion status,[2]; [14],achieved transfusion independence
same,Fetal loss,cynomolgus monkeys,increased fetal loss
same,Maternal toxicity or teratogenicity,cynomolgus monkeys,no evidence
same,Placental and breast milk transfer,cynomolgus monkeys,minimal
same,CH50,"complement C3, C4, CH50; [9]",17 U/mL
same,C4,"complement C3, C4, CH50; [10]",0.43 g/L
same,C3,"complement C3, C4, CH50; [10]",4.9 g/L
same,CH50,"complement C3, C4, CH50; [10]",102 U/mL
same,C4,"complement C3, C4, CH50; [11]",0.37 g/L
same,C3,"complement C3, C4, CH50; [11]",4.7 g/L
same,CH50,"complement C3, C4, CH50; [11]",88 U/mL
same,CH50,"complement C3, C4, CH50; [12]",82 U/mL
same,CH50,"complement C3, C4, CH50; PP 6 w, pegcetacoplan",99 U/mL
same,C4,"complement C3, C4, CH50; PP 1 d, pegcetacoplan",0.34 g/L
same,C3,"complement C3, C4, CH50; PP 1 d, pegcetacoplan",4.33 g/L
same,CH50,"complement C3, C4, CH50; PP 1 d, pegcetacoplan",86.0 U/mL
same,C4,"complement C3, C4, CH50; PP 2 d, pegcetacoplan",0.35 g/L
same,C3,"complement C3, C4, CH50; PP 2 d, pegcetacoplan",4.5 g/L
same,CH50,"complement C3, C4, CH50; PP 2 d, pegcetacoplan",> 103 U/mL
same,C4,"complement C3, C4, CH50; PP 3 d, pegcetacoplan",0.36 g/L
same,C3,"complement C3, C4, CH50; PP 3 d, pegcetacoplan",4.44 g/L
same,CH50,"complement C3, C4, CH50; PP 3 d, pegcetacoplan",97 U/mL
same,"Concentration, breast milk, Sample 1","[3]; postpartum Day 1, LLOQ 20 µg/mL",< LLOQ
same,"Concentration, breast milk, Sample 2","[3]; postpartum Day 2, LLOQ 20 µg/mL",< LLOQ
same,"EC99, effective concentration for maximum hemoglobin response",hemoglobin response,597 µg/mL
same,"Concentration, cord blood plasma, Sample 1",[4],< LLOQ
same,"Concentration, cord blood plasma, Sample 2",[4],< LLOQ
same,"Concentration, cord blood plasma, Sample 3",[4],< LLOQ
same,Infant complications,"[1]; infant exposed in partial first and full third trimester, 10-month follow-up",no complications observed
same,"Concentration, maternal plasma, Sample 2",[5]; [15],625 µg/mL
same,"Concentration, maternal plasma, Sample 3",[5]; [15],587 µg/mL
same,"Concentration, maternal plasma, Sample 1","[5]; morning prior to scheduled cesarean delivery, pegcetacoplan 1080 mg s.c. three times weekly",719 µg/mL
